Experimental data published in patent US6875760B2 (Novo Nordisk A/S, priority 1999, dated 2005).

molecular target: T1, human glucagon receptor (Homo sapiens, UniProt P47871); assay: Glucagon Binding Assay (III); conditions: BHK cell membranes, WGA SPA beads, 125I-glucagon; read-out: Glu Bd Assay (III) IC50
T1 construct: expressed in transfected cells; host or cells: BHK (baby hamster kidney) cells
Procedure, shortened: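 Non-specific binding was set with 500 nM glucagon in this SPA-type binding assay using WGA beads. The receptor source was a membrane preparation, kept on ice or at 4 °C, from BHK cells transfected with the human receptor. Scintillation counts were taken after 4 hours of shaking and 8–48 hours of settling.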

T1 sequence (P47871 26-477): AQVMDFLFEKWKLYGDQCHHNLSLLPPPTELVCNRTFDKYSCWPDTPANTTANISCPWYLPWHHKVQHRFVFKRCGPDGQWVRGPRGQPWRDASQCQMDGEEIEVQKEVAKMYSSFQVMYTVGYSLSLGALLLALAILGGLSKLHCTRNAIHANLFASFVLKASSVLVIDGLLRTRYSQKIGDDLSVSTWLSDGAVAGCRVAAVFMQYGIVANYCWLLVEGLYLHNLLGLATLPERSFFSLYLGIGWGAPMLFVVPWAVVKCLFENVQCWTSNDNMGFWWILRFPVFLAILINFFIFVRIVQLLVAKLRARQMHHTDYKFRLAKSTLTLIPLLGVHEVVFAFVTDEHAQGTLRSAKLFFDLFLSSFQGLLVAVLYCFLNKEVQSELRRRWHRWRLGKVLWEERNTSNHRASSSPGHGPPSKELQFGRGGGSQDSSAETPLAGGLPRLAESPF

Row | IC50 [nM] | Compound
1 | 46 | CC(C)(C)c1ccc(N(Cc2ccc(C(=O)Nc3nn[nH]n3)cc2)C(=O)Nc2ccc(OC(F)(F)F)c(S(C)(=O)=O)c2)cc1 [Example 312, 4-[1-(4-tert-Butylphenyl)-3-(3-methylsulfonyl-4-trifluoromethoxyphenyl)ureidomethyl]-N-(2H-tetrazol-5-yl)benzamide]
2 | 391 | CC(C)(C)[C@H]1CC[C@H](N(Cc2ccc(C(=O)NCCC(=O)NO)cc2)C(=O)Nc2ccc(OC(F)(F)F)cc2)CC1 [Example 376, 4-[1-(trans-4-tert-Butylcyclohexyl)-3-(4-trifluoromethoxyphenyl)ureidomethyl]-N-(2-hydroxycarbamoylethyl)benzamide]
3 | 896 | O=C(O)CCNC(=O)c1ccc(CN(C(=O)c2ccc3c(c2)-c2ccccc2C3=O)c2ccc(C3CCCCC3)cc2)cc1 [Example 522, 3-(4-{[(4-Cyclohexylphenyl)-(9-oxo-9H-fluorene-3-carbonyl)amino]methyl}benzoylamino)propionic acid]
4 | 462 | CC(C)(C)C1CCC(N(Cc2ccc(C(=O)NCCC(=O)O)cc2)C(=O)Nc2ccc(Cl)cc2)CC1 (stereo not drawn) [Example 34, 3-{4-[1-(4-tert-Butylcyclohexyl)-3-(4-chlorophenyl)ureidomethyl]benzoyl}aminopropionic acid]
5 | 139 | CSc1ccc(NC(=O)N(Cc2ccc(C(=O)NCCC(=O)O)cc2)C2CCC(C(C)(C)C)CC2)cc1 (stereo not drawn) [Example 30, 3-{4-[1-(4-tert-Butylcyclohexyl)-3-(4-methylsulfanylphenyl)ureidomethyl]benzoyl}aminopropionic acid]
6 | 8 | CC(C)N1C(=O)c2ccc(NC(=O)N(Cc3ccc(C(=O)Nc4nn[nH]n4)cc3)c3ccc(C4CCCCC4)cc3)cc2C1=O [Example 627, 4-[1-(4-Cyclohexylphenyl)-3-(N-isopropylphthalimid-4-yl)ureidomethyl]-N-(2H-tetrazol-5-yl)benzamide]
7 | 7 | CCCCN1C(=O)c2ccc(NC(=O)N(Cc3ccc(C(=O)Nc4nn[nH]n4)cc3)c3ccc(C4=CCCCC4)cc3)cc2C1=O [Example 625, 4-[3-(N′-Butylphthalimid-4-yl)-1-(4-cyclohex-1-enylphenyl)ureidomethyl]-N-(2H-tetrazol-5-yl)benzamide]
8 | 101 | CCC(C)c1ccc(N(Cc2ccc(C(=O)Nc3nn[nH]n3)cc2)C(=O)Nc2cc(C(=O)OC)cc(C(=O)OC)c2)cc1 (stereo not drawn) [Example 290]
9 | 224 | O=C(Nc1nn[nH]n1)c1ccc(CN(C(=O)CCCc2ccccc2)c2ccc(C3CCCCC3)cc2)cc1 [Example 535, 4-{[(4-Cyclohexylphenyl)-(4-phenylbutyryl)amino]methyl}-N-(2H-tetrazol-5-yl)benzamide]
10 | 1500 | CCCCC(CC)CN(Cc1ccc(C(=O)NCCC(=O)O)cc1)C(=O)Nc1cccc(C(F)(F)F)c1 (stereo not drawn) [Example 21, 3-{4-[1-(2-Ethylhexyl)-3-(3-trifluoromethylphenyl)ureidomethyl]benzoylamino}propionic acid]
11 | 15 | Cc1ccc(NC(=O)N(Cc2ccc(C(=O)Nc3nn[nH]n3)cc2)c2ccc(C3CCCCC3)cc2)cc1Cl [Example 327, 4-[3-(3-Chloro-4-methylphenyl)-1-(4-cyclohexylphenyl)ureidomethyl]-N-(2H-tetrazol-5-yl)benzamide]
12 | 299 | CCCCC(CC)CN(Cc1ccc(C(=O)NCCC(=O)O)cc1)C(=O)Nc1ccc(SC)cc1 (stereo not drawn) [Example 41, 3-{4-[1-(2-Ethylhexyl)-3-(4-methylsulfanylphenyl)ureidomethyl]benzoylamino}propionic acid]
13 | 18 | O=C(Nc1nn[nH]n1)c1ccc(CN(C(=O)Nc2cc(F)cc(C(F)(F)F)c2)c2ccc(C3CCCCC3)cc2)cc1 [Example 262, 4-[1-(4-Cyclohexylphenyl)-3-(3-fluoro-5-trifluoromethylphenyl)ureidomethyl]-N-(2H-tetrazol-5-yl)benzamide]
14 | 908 | O=C(Nc1nn[nH]n1)c1ccc(CN(C(=O)c2ccc(Cc3ccccc3)cc2)c2ccc(N3CCCCC3)cc2)cc1 [Example 519, 4-{[(4-Benzylbenzoyl)-(4-piperidin-1-ylphenyl)amino]methyl}-N-(2H-tetrazol-5-yl)benzamide]
15 | 1730 | CCNC(=O)c1cccc(NC(=O)N(Cc2ccc(C(=O)Nc3nn[nH]n3)cc2)c2ccc(C(C)(C)C)cc2)c1 [Example 460, N-Ethyl-3-{3-(4-tert-butylphenyl)-3-[4-(2H-tetrazol-5-ylcarbamoyl)benzyl]ureido}benzamide]
16 | 509 | CCCCc1ccc(N(Cc2ccc(C(=O)NCCC(=O)O)cc2)C(=O)Nc2ccc(OC(F)(F)F)cc2)c(C)c1 [Example 440, 3-{4-[1-(4-Butyl-2-methylphenyl)-3-(4-trifluoromethoxyphenyl)ureidomethyl]benzoylamino}propionic acid]
17 | 35 | O=C(Nc1nn[nH]n1)c1ccc(CN(C(=O)Nc2ccc(SC(F)(F)F)cc2)c2ccc(C3CCCCC3)cc2)cc1 [Example 301, 4-[1-(4-Cyclohexylphenyl)-3-(4-trifluoromethylsulfanylphenyl)ureidomethyl]-N-(2H-tetrazol-5-yl)benzamide]
18 | 146 | CC(C)(C)C1CCC(N(Cc2ccc(C(=O)NCCC(=O)O)cc2)C(=O)Nc2ccc(Oc3ccccc3)nc2)CC1 (stereo not drawn) [Example 246, 3-{4-[1-(4-tert-Butylcyclohexyl)-3-(6-phenoxypyridin-3-yl)ureidomethyl]benzoylamino}propionic acid]
19 | 444 | CC(C)Cc1ccc(C(=O)N(Cc2ccc(C(=O)Nc3nn[nH]n3)cc2)c2ccc(C3CCCCC3)cc2)cc1 [Example 507, 4-{[(4-Cyclohexylphenyl)-(4-isobutylbenzoyl)amino]methyl}-N-(2H-tetrazol-5-yl)benzamide]
20 | 104 | CCCCOC(=O)c1ccc(NC(=O)N(Cc2ccc(C(=O)NCCC(=O)O)cc2)C2CCC(C(C)(C)C)CC2)cc1 (stereo not drawn) [Example 33, 4-{3-(4-tert-Butylcyclohexyl)-3-[4-(2-carboxyethylcarbamoyl)benzyl]ureido}benzoic acid butyl ester]
21 | 61 | CC(C)(C)C1CCC(N(Cc2ccc(C(=O)NCCC(=O)O)cc2)C(=O)Nc2ccc(Cl)c(C(F)(F)F)c2)CC1 (stereo not drawn) [Example 74, 3-{4-[1-(4-tert-Butylcyclohexyl)-3-(4-chloro-3-trifluoromethylphenyl)ureidomethyl]benzoylamino}propionic acid]
22 | 542 | CS(=O)(=O)c1cccc(NC(=O)N(Cc2ccc(C(=O)Nc3nn[nH]n3)cc2)C2CCC3(CCCCC3)CC2)c1 [Example 620, 4-[3-(3-Methylsulfonylphenyl)-1-spiro[5.5]undec-3-ylureidomethyl]-N-(2H-tetrazol-5-yl)benzamide]
23 | 17 | O=C(Nc1nn[nH]n1)c1ccc(CN(C(=O)Nc2ccc(Br)c(C(F)(F)F)c2)c2ccc(C3=CCCCC3)cc2)cc1 [Example 601, 4-[3-(4-Bromo-3-trifluoromethylphenyl)-1-(4-cyclohex-1-enylphenyl)ureidomethyl]-N-(2H-tetrazol-5-yl)benzamide]
24 | 140 | O=C(Nc1nn[nH]n1)c1ccc(CN(C(=O)/C=C/c2ccccc2Cl)c2ccc(C3CCCCC3)cc2)cc1 [Example 500, 4-{[[3-(2-Chlorophenyl)acryloyl]-(4-cyclohexylphenyl)amino]methyl}-N-(2H-tetrazol-5-yl)benzamide]
25 | 456 | CCc1ccc(NC(=O)N(CCc2ccc(Cl)c(Cl)c2)Cc2ccc(C(=O)NCCC(=O)O)cc2)cc1 [Example 46, 3-{4-[1-[2-(3,4-Dichlorophenyl)ethyl)-3-(4-ethylphenyl)ureidomethyl]benzoylamino}propionic acid]
26 | 87 | Cn1nnc(-c2cccc(NC(=O)N(Cc3ccc(C(=O)Nc4nn[nH]n4)cc3)c3ccc(C(C)(C)C)cc3)c2)n1 [Example 370, 4-{1-(4-tert-Butylphenyl)-3-[3-(2-methyl-2H-tetrazol-5-yl)phenyl]ureidomethyl}-N-(2H-5-yl)benzamide]
27 | 2110 | CC(C)(C)c1ccc(N(Cc2ccc(C(=O)Nc3nn[nH]n3)cc2)C(=O)Nc2cccc(C(N)=O)c2)cc1 [Example 459, 3-{3-(4-tert-Butylphenyl)-3-[4-(2H-tetrazol-5-ylcarbamoyl)benzyl]ureido}benzamide]
28 | 1320 | CC(C)(C)C1CCC(N(Cc2ccc(C(=O)NCCC(=O)O)cc2)C(=O)Nc2cccc(S(C)(=O)=O)c2)CC1 (stereo not drawn) [Example 252, 3-{4-[1-(4-tert-Butylcyclohexyl)-3-(3-methylsulfonylphenyl)ureidomethyl]benzoylamino}propionic acid]

Row | Compound | IC50 [nM]
29 | O=C(O)CCNC(=O)c1ccc(CN(C(=O)Oc2cccc(OC(F)(F)F)c2)c2ccc(C3CCCCC3)cc2)cc1 [Example 421, 3-(4-{[(4-Cyclohexylphenyl)-(3-trifluoromethoxyphenoxycarbonyl)amino]methyl}benzoylamino)propionic acid] | 528
30 | CC(C)(C)C1CCC(N(Cc2ccc(C(=O)NCCC(=O)O)cc2)C(=O)Oc2cccc(OC(F)(F)F)c2)CC1 (stereo not drawn) [Example 408, 3-(4-{[(4-tert-Butylcyclohexyl)-(3-trifluoromethoxyphenoxycarbonyl)amino]methyl}benzoylamino)propionic acid] | 580
31 | CC(C)(C)C1CCC(N(Cc2ccc(C(=O)Nc3nn[nH]n3)cc2)C(=O)c2ccc(OC(F)(F)F)cc2)CC1 (stereo not drawn) [Example 489, 4-{[(4-tert-Butylcyclohexyl)-(4-triflourmethoxybenzoyl)amino]methyl}-N-(2H-tetrazol-5-yl)benzamide] | 150
32 | O=C(O)CCNC(=O)c1ccc(CN(C(=O)Oc2ccc(F)c(F)c2)c2ccc(C3CCCCC3)cc2)cc1 [Example 417, 3-(4-{[(4-Cyclohexylphenyl)-(3,4-difluorophenoxycarbonyl)amino]methyl}benzoylamino)propionic acid] | 877

same assay, conditions: Glu Bd Assay (III) IC50 (nM), BHK cell membranes, WGA SPA beads, 125I-glucagon

Row | Compound | IC50 [nM]
33 | CC(C)(C)[C@H]1CC[C@H](N(Cc2ccc(C(=O)N3CCCC(C(=O)O)C3)cc2)C(=O)Nc2ccc(OC(F)(F)F)cc2)CC1 (relative stereo) [Example 94, 1-{4-[1-(trans-4-tert-Butylcyclohexyl)-3-(4-trifluoromethoxyphenyl)ureidomethyl]benzoyl}piperidine-3-carboxylic acid] | 1000
